{"source": "patent US10793561B2", "about": "“1,8-naphthyridinone compounds and uses thereof” (NUVATION BIO INC., priority 2017, dated 2020)", "key": {"adenosine A2A receptor [1]": {"biological_target": "T1, adenosine A2A receptor (Homo sapiens (Human), UniProt P29274)", "T1 sequence (P29274 whole entry)": "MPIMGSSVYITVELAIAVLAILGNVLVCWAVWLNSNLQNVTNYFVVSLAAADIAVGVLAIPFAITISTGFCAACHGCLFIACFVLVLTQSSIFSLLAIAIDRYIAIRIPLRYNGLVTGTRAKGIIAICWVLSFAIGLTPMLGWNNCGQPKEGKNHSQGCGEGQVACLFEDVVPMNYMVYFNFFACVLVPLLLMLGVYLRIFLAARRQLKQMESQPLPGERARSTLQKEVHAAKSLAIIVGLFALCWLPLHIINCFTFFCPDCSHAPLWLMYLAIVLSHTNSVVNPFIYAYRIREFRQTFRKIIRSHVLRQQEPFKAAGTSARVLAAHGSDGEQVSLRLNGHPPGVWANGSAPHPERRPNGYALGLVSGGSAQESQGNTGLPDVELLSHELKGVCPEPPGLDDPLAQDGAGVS", "experiment": "Radioligand binding competition assay, adenosine A2A receptor", "procedure": "(§1) Binding of selected compounds to the adenosine A1, A2A, A2B, and A3 receptors was tested using a binding competition assay.\n(§2) The general protocol for the radioligand binding competition assay was as follows. Competition binding was performed in duplicate in the wells of a 96 well plate (Master Block, Greiner, 786201) containing binding buffer (optimized for each receptor), membrane extracts (amount of protein/well optimized for each receptor), radiotracer (final concentration optimized for each receptor), and test compound. Nonspecific binding was determined by co-incubation with 200-fold excess of cold competitor. The samples were incubated in a final volume of 0.1 mL at 25° C. for 60 minutes and then filtered over filter plates. Filters were washed six times with 0.5 mL of ice-cold washing buffer (optimized for each receptor) and 50 μL of Microscint 20 (Packard) were added on each filter. The filter plates were sealed, incubated 15 min on an orbital shaker and scintillation counted with a TopCount for 30 sec/filter.\nFor the adenosine A2A receptor radioligand binding assay, the following modifications were made to the general protocol. GF/C filters (Perkin Elmer, 6005174), presoaked in 0.01% Brij for 2 h at room temperature were used. Filters were washed six times with 0.5 mL of ice-cold washing buffer (50 mM Tris pH 7.4) and 50 μL of Microscint 20 (Packard) was added in each well. The plates were then incubated for 15 min on an orbital shaker and then counted with a TopCount™ for 1 min/well.\nAnother radioligand binding assay was used to evaluate the binding affinity for the adenosine A2A receptor assay was performed in duplicate in the wells of a 384 plate. Assay buffer contained DPBS 500 mM, MgCl2 0.1 mM, and 1% DMSO. Membrane-bead suspension was prepared by mixing 25.98 μL of human adenosine A2A membrane preparation (Perkin Elmer, RBHA2AM400UA) at 33.4 pg/mL, 28 μL of ADA at 20 pg/mL, and 932 μL of SPA beads at 3.33 mg/mL) and incubated the mixture for 20 min at room temperature. Mixed 20 μL of radiotracer (^3H-SCH 58261) at 15 nM to each well containing test articles at various concentrations and centrifuge the plate at 1000 rpm for 1 minute. Added 30 μL of the membrane-bead suspension to each well. Sealed the plates and incubated for 1 hr at room temperature with vigorous mixing on a plate mixer. Plates were read on Microbeta^2 (Perkin Elmer, 2450-0010).\n(§3) CHO-K1-A3 cell membranes, 1.5 μg/well; a binding buffer comprising HEPES 25 mM pH 7.4, MgCl2 5 mM, CaCl2 1 mM, 0.5% BSA; a wash buffer comprising HEPES 25 mM pH 7.4, MgCl2 5 mM, CaCl2 1 mM; a Unifilter GF/C—treated for 2 h with 0.5% BS; and 0.4 nM of ^125I-AB-MECA as the tracer. The results of the binding assay are shown in Table B1-1 and are shown as percent residual binding at a given concentration. Percent of residual binding means binding of a compound in the presence of competitor normalized to the amount of binding in the absence of competitor. […] For example, compound 1 strongly bound to A2A (30% residual binding at a concentration of 100 nM), A1 (−3% residual binding at 300 nM) and A2B, (−9% residual binding at 300 nM) but weakly bound to A3 (96% residual binding at 300 nM)."}, "adenosine A1 receptor": {"biological_target": "adenosine A1 receptor (Homo sapiens (Human), UniProt P30542)", "sequence (P30542 whole entry)": "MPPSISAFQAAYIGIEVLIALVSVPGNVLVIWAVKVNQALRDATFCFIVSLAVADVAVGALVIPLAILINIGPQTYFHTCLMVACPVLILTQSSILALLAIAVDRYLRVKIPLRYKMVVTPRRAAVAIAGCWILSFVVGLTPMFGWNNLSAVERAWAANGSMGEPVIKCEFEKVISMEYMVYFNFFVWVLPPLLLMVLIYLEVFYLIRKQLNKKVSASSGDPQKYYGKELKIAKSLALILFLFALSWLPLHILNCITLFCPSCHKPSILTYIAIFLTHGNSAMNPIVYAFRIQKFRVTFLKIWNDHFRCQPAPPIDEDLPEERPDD", "experiment": "Radioligand binding competition assay, adenosine A1 receptor (CHO-K1-A1 cell membranes)", "conditions": "300 nM compound", "procedure": "as §1, §2\nFor the adenosine A1 radioligand binding competition assay, a similar procedure was used except that the following reagents were used: CHO-K1-A1 cell membranes; binding buffer comprising HEPES 25 mM pH 7.4, MgCl2 5 mM, CaCl2 1 mM, NaCl 100 mM, saponin 10 µg/mL; wash buffer comprising HEPES 25 mM pH 7.4, MgCl2 5 mM, CaCl2 1 mM, NaCl 100 mM; Unifilter GF/B—treated for 2 h with 0.5% PEI was the filter; and 1.6 nM of ^3H-DPCPX was the tracer.\nas §3"}, "adenosine A2B receptor": {"biological_target": "adenosine A2B receptor (Homo sapiens (Human), UniProt P29275)", "sequence (P29275 whole entry)": "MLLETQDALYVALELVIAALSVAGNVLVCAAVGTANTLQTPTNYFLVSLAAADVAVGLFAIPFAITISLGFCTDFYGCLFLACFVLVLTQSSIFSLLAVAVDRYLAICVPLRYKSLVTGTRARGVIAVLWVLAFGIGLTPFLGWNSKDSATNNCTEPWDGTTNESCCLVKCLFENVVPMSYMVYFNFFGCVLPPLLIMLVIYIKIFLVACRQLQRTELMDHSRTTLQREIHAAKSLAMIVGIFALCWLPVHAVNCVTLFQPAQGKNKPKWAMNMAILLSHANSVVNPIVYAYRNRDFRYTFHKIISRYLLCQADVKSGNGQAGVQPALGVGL", "experiment": "Radioligand binding competition assay, adenosine A2B receptor (HEK-293-A2b cell membranes)", "conditions": "300 nM compound", "procedure": "as §1, §2\nSimilarly, the following reagents were used for the adenosine A2B radioligand binding competition assay: HEK-293-A2b cell membranes, 20 μg/well, preincubated 30 min at RT with […] Adenosine Deaminase; a binding buffer comprising HEPES 10 mM pH7.4, EDTA 1 mM, 0.5% BSA; a wash buffer comprising HEPES 10 mM pH7.4, EDTA 1 mM; a Unifilter GF/C—treated for 2 h with 0.5% PEI; and 10 nM ^3H-DPCPX as the tracer.\nas §3"}, "adenosine A3 receptor": {"biological_target": "adenosine A3 receptor (Homo sapiens (Human), UniProt P0DMS8)", "sequence (P0DMS8 whole entry)": "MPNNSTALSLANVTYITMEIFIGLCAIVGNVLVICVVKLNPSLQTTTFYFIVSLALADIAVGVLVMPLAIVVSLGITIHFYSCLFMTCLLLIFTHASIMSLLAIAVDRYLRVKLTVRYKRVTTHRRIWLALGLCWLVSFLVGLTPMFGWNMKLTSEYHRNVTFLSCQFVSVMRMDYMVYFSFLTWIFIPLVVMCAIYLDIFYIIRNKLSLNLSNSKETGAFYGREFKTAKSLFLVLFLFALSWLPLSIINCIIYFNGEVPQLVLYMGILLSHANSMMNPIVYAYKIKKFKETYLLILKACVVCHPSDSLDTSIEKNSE", "experiment": "Radioligand binding competition assay, adenosine A3 receptor (CHO-K1-A3 cell membranes)", "conditions": "300 nM compound", "procedure": "as §1, §2\nFor the adenosine A3 radioligand binding competition assay, the following reagents were used:\nas §3"}, "adenosine A2A receptor [2]": {"biological_target": "T1, adenosine A2A receptor", "experiment": "cAMP assay in HEK-293 cells expressing human recombinant adenosine A2A receptor", "assay_type": "cell-based", "conditions": "HEK293; 100 nM compound; read-out: A2a cAMP % inh @ 100 nM", "procedure": "The functional activity of compounds was tested using one of the two assays to detect the present of cAMP. Activation of G-protein coupled receptors (such as A2A) results in activation of adenylcyclase which converts ATP into cAMP which is used as a downstream signaling molecule. Therefore, molecules which act as GPCR (or specifically A2A receptor) antagonists cause a decrease in intracellular cAMP concentration.\nBoth assays used HEK-293 cells expressing human recombinant adenosine A2A receptor were grown prior to the test in media without antibiotic. Assay 1: The cells were detached by gentle flushing with PBS-EDTA (5 mM EDTA), recovered by centrifugation and suspended in assay buffer (KRH: 5 mM KCl, 1.25 mM MgSO4, 124 mM NaCl, 25 mM HEPES, 13.3 mM Glucose, 1.25 mM KH2PO4, 1.45 mM CaCl2, 0.5 g/L BSA, supplemented with Rolipram).\n12 μL of cells were mixed with 6 μL of the test compound at increasing concentrations and then incubated for 10 min. Thereafter 6 μL of the reference agonist was added at a final concentration corresponding to the historical EC80. The plates were then incubated for 30 min at room temperature. After addition of the lysis buffer and 1 hour incubation, cAMP concentrations were estimated, according to the manufacturer specification, with the HTRF® kit.\nAssay 2: 100 nL of test articles at 100× of final concentration were transferred to assay plate by Echo. Cells were washed twice with 5 mL of PBS […]. After aspirating the PBS and adding 1.5 mL versine, cells were incubated at 37° C. for 2-5 min. After centrifugation, 4 mL of medium was added and adjusted cell density to 5,000 cells/well with stimulation buffer. 10 μL of cells were aliquoted to the assay plate, centrifuged at 1000 rpm for 1 minute, and incubated for 60 minutes at room temperature. 5 μL 4× Eu-cAMP tracer solution and 5 μL 4× Ulight™-anti-cAMP solution were added to assay plate, followed by centrifugation and 60-minute incubation at room temperature. Plates were read on EnVision."}}, "data": [{"smiles": "O=c1cc[nH]c2nc(-c3ccco3)c(-c3ccc4ncccc4c3)cc12", "note": "[Compound No. 1.14, 7-(furan-2-yl)-6-(quinolin-6-yl)-1,8-naphthyridin-4(1H)-one]", "values": [{"measurement": "IC50", "setting": "adenosine A2A receptor [1]", "value": 33, "unit": "nM"}, {"measurement": "A2A radioligand binding competition assay % residual binding @ 3000 nM", "setting": "adenosine A2A receptor [1]; 3000 nM compound", "value": "5/ND/ND/ND %"}, {"measurement": "Radioligand binding competition assay % residual binding @ 300 nM (A1)", "setting": "adenosine A1 receptor", "value": 13, "unit": "%"}, {"measurement": "Radioligand binding competition assay % residual binding @ 300 nM (A2b)", "setting": "adenosine A2B receptor", "value": 0, "unit": "%"}, {"measurement": "Radioligand binding competition assay % residual binding @ 300 nM (A3)", "setting": "adenosine A3 receptor", "value": 87, "unit": "%"}, {"measurement": "inhibition at 0.1 µM", "setting": "adenosine A2A receptor [2]", "value": 94, "unit": "%"}]}]}
